Reference: the RepoRT retention time repository (doi:10.1016/j.jchromb.2020.122105)

Assays:
Conditions in all cases: stereoisomer not certain
[1] = HILIC, Merck SeQuant ZIC-HILIC, 150 × 2.1 mm, 5 µm, 0.75 mL/min, estimated dead time 0.44 min; A: water + 10 mM ammonium formate, pH 6; B: 5% water + 95% acetonitrile + 10 mM ammonium formate, pH 6; gradient (min/%B) 0/95 5/95 20/57 25/57 30/95 40/95
[2] = RP, Waters ACQUITY UPLC BEH C18, 100 × 2.1 mm, 1.7 µm, 0.1 mL/min, estimated dead time 2.2 min; A: water + 0.1% formic acid, pH 3; B: methanol + 0.1% formic acid, pH 3; gradient (min/%B) 0/5 5/5 25/95 25.1/100 35/100 35.1/5 45/5
[3] = RP, Waters CORTECS T3, 100 × 2.1 mm, 2.7 µm, 0.3 mL/min, estimated dead time 0.73 min; A: water + 0.1% formic acid, pH 3; B: methanol + 0.1% formic acid, pH 3; gradient (min/%B) 0/0 1/0 6/5 30/100 35/100 35.1/0 40/0
[4] = RP, Waters CORTECS T3, 100 × 2.1 mm, 2.7 µm, 0.15 mL/min, estimated dead time 1.5 min; A: water + 0.1% formic acid, pH 3; B: methanol + 0.1% formic acid, pH 3; gradient (min/%B) 0/0 1/0 6/5 30/100 35/100 35.1/0 40/0
[5] = RP, Thermo Scientific Hypercarb, 150 × 2.1 mm, 5 µm, 0.1 mL/min, estimated dead time 3.3 min; A: water + 0.1% formic acid, pH 3; B: methanol + 0.1% formic acid, pH 3; gradient (min/%B) 0/5 5/5 20/100 35/100 35.1/5 45/5
[6] = RP, Waters CORTECS T3, 100 × 2.1 mm, 2.7 µm, 0.1 mL/min, estimated dead time 2.2 min; A: water + 0.1% formic acid, pH 3; B: methanol + 0.1% formic acid, pH 3; gradient (min/%B) 0/0 1/0 6/5 30/100 35/100 35.1/0 40/0
[7] = RP, Waters CORTECS T3, 100 × 2.1 mm, 2.7 µm, 0.3 mL/min, estimated dead time 0.73 min; A: water + 0.1% formic acid, pH 3; B: methanol + 0.1% formic acid, pH 3; gradient (min/%B) 0/5 5/5 25/100 30/100 30.1/5 35/5
[8] = RP, Waters ACQUITY UPLC BEH C18, 100 × 2.1 mm, 1.7 µm, 0.1 mL/min, estimated dead time 2.2 min; A: water + 0.045% formic acid + 0.11% ammonium hydroxide, pH 7; B: methanol; gradient (min/%B) 0/5 5/5 25/95 25.1/100 35/100 35.1/5 45/5
[9] = HILIC, Merck SeQuant ZIC-HILIC, 150 × 2.1 mm, 5 µm, 0.75 mL/min, estimated dead time 0.44 min; A: water + 0.1% acetic acid + 10 mM ammonium acetate, pH 4; B: 5% water + 95% acetonitrile + 0.1% acetic acid + 10 mM ammonium acetate, pH 4; gradient (min/%B) 0/95 5/95 20/57 25/57 30/95 40/95
[10] = RP, Waters CORTECS T3, 100 × 2.1 mm, 2.7 µm, 0.25 mL/min, estimated dead time 0.88 min; A: water + 0.1% formic acid, pH 3; B: methanol + 0.1% formic acid, pH 3; gradient (min/%B) 0/0 1/0 6/5 30/100 35/100 35.1/0 40/0
[11] = RP, Waters CORTECS T3, 100 × 2.1 mm, 2.7 µm, 0.3 mL/min, estimated dead time 0.73 min; A: water + 0.1% formic acid, pH 3; B: methanol + 0.1% formic acid, pH 3; gradient (min/%B) 0/5 5/5 25/95 25.1/100 35/100 35.1/5 45/5
[12] = RP, Waters ACQUITY UPLC BEH C18, 100 × 2.1 mm, 1.7 µm, 0.1 mL/min, estimated dead time 2.2 min; A: water + 0.1% formic acid, pH 3; B: methanol + 0.1% formic acid, pH 3; gradient (min/%B) 0/5 5/5 25/100 30/100 30.1/5 35/5
[13] = RP, Waters CORTECS T3, 100 × 2.1 mm, 2.7 µm, 0.2 mL/min, estimated dead time 1.1 min; A: water + 0.1% formic acid, pH 3; B: methanol + 0.1% formic acid, pH 3; gradient (min/%B) 0/0 1/0 6/5 30/100 35/100 35.1/0 40/0
[14] = HILIC, Waters XBridge BEH Amide, 100 × 2.1 mm, 2.5 µm, 0.5 mL/min, estimated dead time 0.44 min; A: water + 0.1% acetic acid + 10 mM ammonium acetate, pH 4; B: 5% water + 95% acetonitrile + 0.1% acetic acid + 10 mM ammonium acetate, pH 4; gradient (min/%B) 0/95 5/95 20/57 25/57 30/95 40/95
[15] = RP, Waters CORTECS T3, 100 × 2.1 mm, 2.7 µm, 0.1 mL/min, estimated dead time 2.2 min; A: water + 0.1% formic acid, pH 3; B: methanol + 0.1% formic acid, pH 3; gradient (min/%B) 0/5 5/5 25/95 25.1/100 35/100 35.1/5 45/5
[16] = RP, Waters ACQUITY UPLC BEH C18, 100 × 2.1 mm, 1.7 µm, 0.1 mL/min, estimated dead time 2.2 min; A: water + 0.1% formic acid, pH 3; B: methanol + 0.1% formic acid, pH 3; gradient (min/%B) 0/5 5/5 25/95 25.1/100 35/100 35.1/5 45/5; remark: listed apart in the source
[17] = RP, Waters CORTECS T3, 100 × 2.1 mm, 2.7 µm, 0.2 mL/min, estimated dead time 1.1 min; A: water + 0.045% formic acid + 0.11% ammonium hydroxide, pH 7; B: methanol; gradient (min/%B) 0/5 5/5 25/95 25.1/100 35/100 35.1/5 45/5
[18] = RP, Waters CORTECS T3, 100 × 2.1 mm, 2.7 µm, 0.3 mL/min, estimated dead time 0.73 min; A: water + 0.1% formic acid, pH 3; B: methanol + 0.1% formic acid, pH 3; gradient (min/%B) 0/0 5/0 25/100 30/100 30.1/0 35/0
[19] = RP, Waters ACQUITY UPLC BEH C18, 100 × 2.1 mm, 1.7 µm, 0.2 mL/min, estimated dead time 1.1 min; A: water + 0.025% formic acid + 20 mM ammonium acetate + 0.055% ammonium hydroxide, pH 7; B: methanol; gradient (min/%B) 0/5 5/5 25/100 30/100 30.1/5 35/5
[20] = RP, Waters ACQUITY UPLC BEH C18, 100 × 2.1 mm, 1.7 µm, 0.1 mL/min, estimated dead time 2.2 min; A: water + 0.1% formic acid, pH 3; B: methanol + 0.1% formic acid, pH 3; gradient (min/%B) 0/5 5/5 25/95 25.1/100 35/100 35.1/5 45/5; remark: listed apart in the source
[21] = RP, Waters ACQUITY UPLC BEH C18, 100 × 2.1 mm, 1.7 µm, 0.2 mL/min, estimated dead time 1.1 min; A: water + 0.025% formic acid + 20 mM ammonium acetate + 0.055% ammonium hydroxide, pH 7; B: methanol; gradient (min/%B) 0/5 5/5 25/100 30/100 30.1/5 35/5; remark: listed apart in the source
[22] = RP, Waters CORTECS T3, 100 × 2.1 mm, 2.7 µm, 0.2 mL/min, estimated dead time 1.1 min; A: water + 0.1% formic acid, pH 3; B: methanol + 0.1% formic acid, pH 3; gradient (min/%B) 0/0 1/0 6/5 30/100 35/100 35.1/0 40/0; remark: listed apart in the source
[23] = RP, Waters ACQUITY UPLC BEH C18, 100 × 2.1 mm, 1.7 µm, 0.2 mL/min, estimated dead time 1.1 min; A: water + 0.1% formic acid, pH 3; B: methanol + 0.1% formic acid, pH 3; gradient (min/%B) 0/5 5/5 25/100 30/100 30.1/5 35/5
[24] = RP, Waters CORTECS T3, 100 × 2.1 mm, 2.7 µm, 0.3 mL/min, estimated dead time 0.73 min; A: water + 0.1% formic acid, pH 3; B: methanol + 0.1% formic acid, pH 3; gradient (min/%B) 0/0 5/0 25/100 30/100 30.1/0 35/0; remark: listed apart in the source
[25] = RP, Waters CORTECS T3, 100 × 2.1 mm, 2.7 µm, 0.3 mL/min, estimated dead time 0.73 min; A: water + 0.1% formic acid, pH 3; B: methanol + 0.1% formic acid, pH 3; gradient (min/%B) 0/0 1/0 6/5 30/100 35/100 35.1/0 40/0; remark: listed apart in the source
[26] = RP, Waters CORTECS T3, 100 × 2.1 mm, 2.7 µm, 0.25 mL/min, estimated dead time 0.88 min; A: water + 0.1% formic acid, pH 3; B: methanol + 0.1% formic acid, pH 3; gradient (min/%B) 0/5 5/5 25/95 25.1/100 35/100 35.1/5 45/5
[27] = RP, Waters CORTECS T3, 100 × 2.1 mm, 2.7 µm, 0.2 mL/min, estimated dead time 1.1 min; A: water + 0.1% formic acid, pH 3; B: methanol + 0.1% formic acid, pH 3; gradient (min/%B) 0/5 5/5 25/95 25.1/100 35/100 35.1/5 45/5

LC retention time [2] | LC retention time [3] | LC retention time [4] | LC retention time [6] | LC retention time [7] | LC retention time [8] | LC retention time [9] | LC retention time [10] | LC retention time [11] | LC retention time [12] | LC retention time [13] | LC retention time [14] | LC retention time [15] | LC retention time [16] | LC retention time [17] | LC retention time [18] | LC retention time [19] | LC retention time [20] | LC retention time [21] | LC retention time [22] | SMILES | further results
10.6 min | 8.04 min | 10.7 min | 7.08 min | 5.02 min | 13.5 min | 1.51 min | 8.69 min | 4.96 min | 10.5 min | 9.42 min | 2.22 min | 10.9 min | 2.66 min | 10.7 min | 8.57 min | 10.5 min |  |  |  | Cn1cnc2c(ncn2C2OC(CO)C(O)C2O)c1=N (stereo not given) [1-METHYLADENOSINE] | LC retention time [1]: 1.56 min; LC retention time [5]: 21.8 min
13.1 min | 10.1 min | 12.6 min | 9.84 min | 8.5 min | 15.4 min | 1.23 min | 10.7 min | 8.59 min | 12.9 min | 11.3 min | 1.61 min | 13 min | 13.1 min | 12.3 min | 9.9 min | 12.1 min |  |  |  | CSCC1OC(n2cnc3c(N)ncnc32)C(O)C1O (stereo not given) [5'-METHYLTHIOADENOSINE] | LC retention time [1]: 1.29 min
2.66 min |  | 1.78 min |  |  |  | 12.1 min | 1.09 min |  | 2.74 min | 1.34 min |  |  | 2.72 min |  | 0.89 min |  | 2.67 min | 1.36 min | 1.35 min | Nc1ccn(C2OC(CO)C3OP(=O)([O-])OC32)c(=O)n1 (stereo not given) [CYTIDINE 2',3'-CYCLIC MONOPHOSPHATE] | LC retention time [23]: 1.34 min; LC retention time [24]: 0.89 min
6.68 min | 5.42 min | 9.04 min | 3.77 min | 2.67 min |  | 12.3 min | 6.2 min | 2.59 min | 7.01 min | 7.21 min | 12.3 min | 7.41 min | 2.72 min |  |  |  | 7.13 min | 1.41 min | 7.35 min | Nc1nc2c(ncn2C2OC3COP(=O)(O)OC3C2O)c(=O)[nH]1 (stereo not given) [GUANOSINE 3',5'-CYCLIC MONOPHOSPHATE] | LC retention time [25]: 5.71 min; LC retention time [26]: 3.22 min; LC retention time [23]: 3.76 min; LC retention time [27]: 11.1 min; LC retention time [24]: 6.99 min
19.6 min |  | 19.6 min | 16.3 min | 14.6 min | 19.5 min |  | 17.5 min | 15 min | 19.1 min | 18.3 min |  | 19.6 min | 19.6 min | 16.4 min | 15.3 min | 16 min | 19.6 min | 13.1 min | 18.3 min | Cc1cc2nc3[nH]c(=O)[nH]c(=O)c3nc2cc1C [LUMICHROME] | LC retention time [26]: 15.5 min; LC retention time [23]: 16 min
